Tested on: parent L5178 mouse T-cell lymphoma cells
Assay: MTT cell viability, parent L5178 cells
Settings: Mus musculus, L5178, 72 h, read-out: Inhibition (%) of viability
Description: For the determination of relative number of viable cells before and after treatments, in most cases the MTT assay was used. This calorimetric assay is based on the ability of living cells, but not dead cells, to reduce 3-(4, 5-dimethyl thiazol-2-yl)-2, 5-diphenyltetrazolium bromide [Carmichael, J, De Graff, W. G., Gazdar, A. F., Minna, J. D. and Mitchell, J. B. (1987), “Evaluation oftetrazolium-based semiautomated calorimetric assay: Assessment of chemosensitivity testing,” Cancer Res., 47, 936-942]. For this assay, cells were plated in 96-well plates (10,000-30,000 cells in case of cultured cells, 100,000 cells in case of healthy lymphocytes, and 200,000 cells in case of chronic lymphocytic leukemia or non-Hodgkin lymphocytes) in the respective incubation media. After a 24-h resting period, the cells were treated with the test agents and then incubated (in CO2 incubator under humidified atmosphere) for 72 hours (final incubation volume, 150 μl). The MTT assay was performed both with the untreated and treated cell cultures at the conclusion of the incubation. Often, the MTT assay also was performed at the start of treatments to allow assessment of proliferation rates in the control and treated cell cultures. All data presented are the average of 4 incubations (in 4 separate wells) with the same cell population.
Parent L5178 cells were seeded at 10,000 cells per well in 96-well plates and then incubated for 72 hours in the absence or presence of CCcompound104 (1 or 5 μg/ml) and various concentrations of CCcompound26 as indicated in Table 5.
Epirubicin, like doxorubicin and other antracyclins, is an MDR1 substrate. The goal of this experiment was to use epirubicin as a model compound to determine if in L5178/MDR1 cells CCcompound104 also can enhance the effects of MDR1 substrate anti-cancer agents other than CCcompound26 and other thioxanthene or thioxanthone CC compounds. The parent and MDR1 expressing cells were seeded at 30,000 cells per well in 96-well microplates and after a 24-h resting period treated with increasing concentrations of epirubicin n in the absence or presence of 5 μg/ml of CCcompound104 for 72 hours.

C=CC[N+](CC)(CC)CC/C=C1/c2ccccc2Sc2ccc(C)cc21.[Br-] [CCcompound26, N,N-Diethyl-N-allyl-3-(2-methyl-9H-thioxanthen-9-ylidene)-propan-1-aminiumbromide]
cytotoxicity at 1.56 µM: 55%
cytotoxicity at 3.12 µM: 68%
cytotoxicity at 6.25 µM: 80%
